Laboratory results published in ChEMBL document CHEMBL6127052, “Discovery of membrane-targeting amphiphilic honokiol derivatives containing an oxazolethione moiety to combat methicillin-resistant Staphylococcus aureus (MRSA) infections” (Eur J Med Chem, 2024).
Active and inactive are the calls of the source. The calls are words filed in the database; no cut-off is given here.

Legend:
[1] = tested on: Staphylococcus aureus; assay: Induction of resistance development in Staphylococcus aureus ATCC 29213 assessed as fold increase in MIC at 0.5 times MIC treated for 18 days of consecutive passages; format: functional; conditions: time 18 day
[2] = tested on: Staphylococcus aureus; assay: Induction of resistance development in Staphylococcus aureus ATCC 29213 assessed as increase in MIC at 0.5 times MIC treated for 4 days of consecutive passages; format: functional, organism-based; conditions: time 4.0 day
[3] = tested on: Staphylococcus aureus; assay: Antibacterial activity against methicillin-resistant Staphylococcus aureus clinical isolate M12 by CLSI based micro-broth dilution method; format: functional
[4] = tested on: Staphylococcus aureus; assay: Antibacterial activity against methicillin-resistant Staphylococcus aureus clinical isolate M17 by CLSI based micro-broth dilution method; format: functional
[5] = tested on: Escherichia coli; assay: Antibacterial activity against Escherichia coli ATCC 25922 by CLSI based micro-broth dilution method; format: functional
[6] = Hemolytic activity in sheep erythrocytes incubated for 1 hr by absorbance based assay; format: toxicity, cell-based, Ovis aries, Erythrocyte
[7] = tested on: Staphylococcus aureus; assay: Antibacterial activity against methicillin-resistant Staphylococcus aureus clinical isolate M23 by CLSI based micro-broth dilution method; format: functional
[8] = tested on: Staphylococcus aureus; assay: Antibacterial activity against methicillin-resistant Staphylococcus aureus clinical isolate M13 by CLSI based micro-broth dilution method; format: functional
[9] = tested on: Staphylococcus aureus; assay: Antibacterial activity against methicillin-resistant Staphylococcus aureus clinical isolate M20 by CLSI based micro-broth dilution method; format: functional
[10] = tested on: Staphylococcus aureus; assay: Antibacterial activity against methicillin-resistant Staphylococcus aureus clinical isolate M16 by CLSI based micro-broth dilution method; format: functional
[11] = tested on: Staphylococcus aureus; assay: Antibacterial activity against methicillin-resistant Staphylococcus aureus clinical isolate M14 by CLSI based micro-broth dilution method; format: functional
[12] = tested on: Staphylococcus aureus; assay: Antibacterial activity against methicillin-resistant Staphylococcus aureus clinical isolate M22 by CLSI based micro-broth dilution method; format: functional
[13] = Selectivity index, ratio of HC50 for hemolytic activity in sheep erythrocytes to MIC for antibacterial activity against Staphylococcus aureus ATCC 29213; format: toxicity, cell-based, RBC
[14] = tested on: Staphylococcus aureus; assay: Antibacterial activity against methicillin-resistant Staphylococcus aureus N315 by CLSI based micro-broth dilution method; format: functional
[15] = tested on: Staphylococcus aureus; assay: Antibacterial activity against methicillin-resistant Staphylococcus aureus clinical isolate M11 by CLSI based micro-broth dilution method; format: functional
[16] = tested on: Staphylococcus aureus; assay: Antibacterial activity against Staphylococcus aureus ATCC 29213 by CLSI based micro-broth dilution method; format: functional
[17] = tested on: Staphylococcus aureus; assay: Antibacterial activity against methicillin-resistant Staphylococcus aureus clinical isolate M21 by CLSI based micro-broth dilution method; format: functional

Row | SMILES | fold change (FC) [1] | Activity [2] | MIC [3] [µg/mL] | MIC [4] [µg/mL] | MIC [5] [µg/mL] | HC50 at 1 h [6] [µg/mL] | MIC [7] [µg/mL] | MIC [8] [µg/mL] | MIC [9] [µg/mL] | MIC [10] [µg/mL] | MIC [11] [µg/mL] | MIC [12] [µg/mL] | selectivity ratio [13] | MIC [14] [µg/mL] | MIC [15] [µg/mL] | MIC [16] [µg/mL] | MIC [17] [µg/mL]
1 | CCn1cc(C(=O)O)c(=O)c2cc(F)c(N3CCNCC3)cc21 [NORFLOXACIN] | 128 | Active |  |  |  |  |  |  |  |  |  |  |  |  |  |  | 
2 | C=CCc1cc(-c2ccc(OCCC[N+](C)(C)CC(=O)NCCCC)c(CC=C)c2)c2oc(=S)n(Cc3ccc(F)c(Br)c3)c2c1.[Br-] |  |  | 4 | 16 | > 128 | 42.1 | 8 | 8 | 4 | 8 | 8 | 32 | 2.6 | 16 | 8 | 16 | 4
3 | C=CCc1cc(-c2ccc(OCCC[N+](C)(C)CC(=O)NCCCC)c(CC=C)c2)c2oc(=S)n(Cc3ccccc3)c2c1.[Br-] |  |  | 4 | 8 | > 128 | > 160 | 4 | 4 | 8 | 4 | 4 | 4 | > 20 | 8 | 4 | 8 | 4
4 | C=CCc1cc(-c2ccc(OCCC[N+](C)(C)CC(=O)NCCCC)c(CC=C)c2)c2oc(=S)n(Cc3ccccc3F)c2c1.[Br-] |  |  | 4 | 8 | > 128 | > 160 | 8 | 8 | 8 | 8 | 8 | 32 | > 20 | 8 | 4 | 8 | 4
5 | C=CCc1cc(-c2ccc(OCCC[N+](C)(C)CC(=O)NCCCC)c(CC=C)c2)c2oc(=S)n(Cc3ccc(F)c(Cl)c3)c2c1.[Br-] |  |  | 8 | 16 | > 128 | > 160 | 32 | 16 | 16 | 16 | 32 | 32 | > 1.25 | 64 | 16 | 128 | 8
6 | C=CCc1cc(-c2ccc(OCCC[N+](C)(C)CC(=O)NCCCC)c(CC=C)c2)c2oc(=S)n(Cc3ccc(Cl)cc3Br)c2c1.[Br-] |  |  | > 128 | > 128 | > 128 | 95.8 | 128 | > 128 | > 128 | 128 | > 128 | 128 | 0.7 | 128 | 128 | > 128 | 128
7 | C=CCc1cc(-c2ccc(OCCC[N+](C)(C)CC(=O)NCCCC)c(CC=C)c2)c2oc(=S)n(Cc3cccc(Cl)c3Cl)c2c1.[Br-] |  |  | 8 | 64 | > 128 | 22 | 64 | 64 | 8 | 64 | 32 | 64 | 0.7 | 64 | 16 | 32 | 8
8 | C=CCc1cc(-c2ccc(OCCC[N+](C)(C)CC(=O)NCCCC)c(CC=C)c2)c2oc(=S)n(Cc3ccc(F)c(F)c3)c2c1.[Br-] |  |  | 4 | 4 | > 128 | 68.4 | 4 | 2 | 4 | 4 | 2 | 4 | 10.4 | 16 | 4 | 4 | 4
9 | C=CCc1cc(-c2ccc(OCCC[N+](C)(C)CC(=O)NCCCC)c(CC=C)c2)c2oc(=S)n(Cc3ccc(Cl)c(Cl)c3)c2c1.[Br-] |  |  | 32 | 128 | > 128 | > 160 | 32 | 64 | 32 | 32 | 32 | 64 | > 2.5 | 32 | 32 | 64 | 16
10 | C=CCc1cc(-c2ccc(OCCC[N+](C)(C)CC(=O)NCCCC)c(CC=C)c2)c2oc(=S)n(Cc3cc(Br)cc(Br)c3)c2c1.[Br-] |  |  | 64 | 64 | > 128 | > 160 | 64 | 128 | 32 | 64 | 128 | 64 | 1.3 | 64 | 32 | > 128 | 32
11 | C=CCc1cc(-c2ccc(OCCC[N+](C)(C)CC(=O)NCCCC)c(CC=C)c2)c2oc(=S)n(Cc3ccc(Br)cc3Br)c2c1.[Br-] |  |  | > 128 | > 128 | > 128 | 65.4 | > 128 | > 128 | > 128 | > 128 | > 128 | > 128 | 0.5 | 128 | > 128 | > 128 | > 128
